Measured values published in article PMC5421464, “Characterization of the single-subunit oligosaccharyltransferase STT3A from Trypanosoma brucei using synthetic peptides and lipid-linked oligosaccharide analogs” (Glycobiology, 2017).
Marks after values point to notes of the source that are not given here. Ends that are not written are not given here. * marks the point of attachment. 5FAM = O=C1OC2(c3ccc(O)cc3Oc3cc(O)ccc32)c2ccc(C(=O)*)cc21

How the values were obtained:
Type in all cases: biochemical
TbSTT3A [1] = biological target: T1, TbSTT3A (Trypanosoma brucei, UniProt Q57W34); test: Michaelis-Menten kinetics of the LLO analogs; conditions: for kcat (LLO analog): 20 nM TbSTT3A, 10 µM acceptor peptide, varying LLO analog concentration
T1 sequence (Q57W34 1-801): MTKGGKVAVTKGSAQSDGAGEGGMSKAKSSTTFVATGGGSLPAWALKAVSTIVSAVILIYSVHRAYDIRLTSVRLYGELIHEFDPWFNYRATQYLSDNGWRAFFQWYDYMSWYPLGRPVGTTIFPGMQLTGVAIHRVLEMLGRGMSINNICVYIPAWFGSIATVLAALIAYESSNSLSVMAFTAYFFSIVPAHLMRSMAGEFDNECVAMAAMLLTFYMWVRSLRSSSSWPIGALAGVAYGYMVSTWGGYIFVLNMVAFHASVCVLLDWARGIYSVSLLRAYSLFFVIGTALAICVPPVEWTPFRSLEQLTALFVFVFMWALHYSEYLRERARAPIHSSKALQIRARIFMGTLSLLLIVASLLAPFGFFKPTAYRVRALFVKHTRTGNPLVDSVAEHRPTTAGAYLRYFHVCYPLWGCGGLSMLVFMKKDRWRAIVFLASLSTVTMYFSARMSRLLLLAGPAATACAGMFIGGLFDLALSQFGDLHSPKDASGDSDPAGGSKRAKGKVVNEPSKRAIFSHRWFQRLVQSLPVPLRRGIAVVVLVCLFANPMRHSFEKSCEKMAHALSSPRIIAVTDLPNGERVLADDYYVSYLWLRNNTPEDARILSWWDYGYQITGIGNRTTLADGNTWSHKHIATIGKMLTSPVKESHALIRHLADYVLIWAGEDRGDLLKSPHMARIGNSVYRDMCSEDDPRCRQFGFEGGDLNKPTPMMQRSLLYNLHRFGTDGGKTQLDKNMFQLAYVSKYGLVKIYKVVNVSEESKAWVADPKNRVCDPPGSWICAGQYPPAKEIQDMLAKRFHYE
Procedure: Fig. 3. (A) Structure of the LLO analogs synthesized (1a) (S)-Citronellyl-PP-Chitobiose, C10; (1b) farnesyl-PP-chitobiose, C15; (1c) (S)-NerylCitronellyl-PP-chitobiose, C20; (1d) (S)-farnesylCitronellyl-PP-chitobiose, C25. (B) Kinetic analysis of synthetic LLO analogs. Glycosylation experiments were performed with 20 nM purified TbSTT3A, 10 µM […], 10 mM MnCl2, 150 mM NaCl, 20 mM Hepes pH 7.5, 0.035% DDM, 0.007% CHS and different concentrations of synthetic LLO analogs. Data points reflect the mean of 3 separate measurements. Error bars indicate standard deviations. Data were fitted by nonlinear regression according to the Michaelis–Menten formula using PRISM software. This figure is available in black and white in print and in color at Glycobiology online.
For Michaelis–Menten kinetics of the LLO analogs, reaction mixtures containing 20 nM TbSTT3A protein, 10 µM peptide P11, 10 mM MnCl2, 150 mM NaCl, 20 mM Hepes pH 7.5, 0.035% DDM and 0.007% CHS were incubated with different concentrations of LLO analogs (10–900 µM, for 1a; 2–60 µM, for 1b; 1–50 µM, for 1c and 1–20 µM, for 1d). Samples were taken at different time points and turnover rates of the reactions were determined as before. Data were fitted by nonlinear regression according to the Michaelis–Menten formula using PRISM software.

TbSTT3A [2] = biological target: T1, TbSTT3A; test: Inhibition analysis with LLO competitive inhibitors; conditions: 20 nM TbSTT3A, 10 µM peptide P11, inhibitor 1-2500 µM preincubated 5 min, 15 µM farnesyl-PP-chitobiose 1b
Procedure: Fig. 5. (A) Structure of the LLO inhibitors synthesized (34b) farnesyl-PP-C-chitobiose, C15; (34d) (S)-farnesylCitronellyl-PP-C-chitobiose, C25. (B) Kinetic analysis of synthetic LLO inhibitors. Glycosylation experiments were performed with 20 nM TbSTT3A protein, 10 µM peptide P11, 10 mM MnCl2, 150 mM NaCl, 20 mM Hepes pH 7.5, 0.035% DDM and 0.007% CHS. Samples were incubated with LLO competitive inhibitors (1–2500 µM) for 5 min before adding 15 µM of farnesyl-PP-chitobiose, 1b. Data points reflect the mean of three separate measurements. Error bars indicate standard deviations. Data were fitted by nonlinear regression using PRISM software. This figure is available in black and white in print and in color at Glycobiology online.
For inhibition analysis, reaction mixtures containing 20 nM TbSTT3A protein, 10 µM peptide P11, 10 mM MnCl2, 150 mM NaCl, 20 mM Hepes pH 7.5, 0.035% DDM and 0.007% CHS were incubated with different concentrations of LLO competitive inhibitors (1–2500 µM) for 5 min at 30°C. Reactions were started with addition of 15 µM of farnesyl-PP-chitobiose, 1b. Samples were taken at different time points and turnover rates of the reactions were determined as before. Data were fitted to nonlinear regression and IC50 was determined using PRISM software.

TbSTT3A [3] = biological target: T1, TbSTT3A; test: In vitro glycosylation assay, turnover rate of acceptor peptides (Tricine SDS-PAGE fluorescence)
Procedure: (§1) Fig. 2. Optimization of the acceptor peptide sequence. (A) Synthetic acceptor peptides are shown in single letter code. The acceptor asparagine (zero position of the sequon) is indicated in red. Glycosylation experiments were performed and the fluorescently labeled substrate (G0) and product (G1) were quantified following Tricine SDS-PAGE analysis. (B) Turnover rates after fitting the time points by linear regression using PRISM. Error bars indicate standard error of the fitting. (C) Kinetic analysis of substrate peptides: glycosylation experiments were performed with 20 nM purified TbSTT3A, 50 µM farnesyl-PP-chitobiose, 10 mM MnCl2, 150 mM NaCl, 20 mM Hepes pH 7.5, 0.035% DDM, 0.007% CHS and different concentrations of peptides varying from 2 to 60 µM. Data points reflect the mean of three separate measurements. Error bars indicate standard deviations. Data were fitted by nonlinear regression according to the Michaelis–Menten formula using PRISM. This figure is available in black and white in print and in color at Glycobiology online.
Reaction mixtures contained 20 nM purified TbSTT3A protein, 50µM farnesyl-PP-GlcNAc or farnesyl-PP-chitobiose, 10 mM MnCl2, 150 mM NaCl, 20 mM Hepes pH 7.5, 0.035% DDM, 0.007% CHS and 20 µM of the peptide. Reactions were incubated at 30°C. Samples were taken at different time points and reactions were stopped by the addition of 4X SDS Laemmli buffer. Samples were diluted 200-fold prior to analysis by Tricine SDS-PAGE consisting of a 16% resolving gel with 6 M urea, a 10% spacer gel and a 4% stacking gel ([Schägger 2006]). Fluorescent bands for peptide and glycopeptide were visualized by using a Typhoon Trio Plus imager (GE Healthcare) with excitation set at 488 nm and using a 526 nm SP emission filter. The amount of formed glycopeptide was determined from band intensities of fluorescence gel scans (ImageJ) ([Gerber et al. 2013]). Turnover rate determination was performed by fitting of the data to linear regression using PRISM software.
Supplementary Figure 2: Glycosylation Assays with farnesyl-PP-GlcNAc. In vitro glycosylation experiments were performed with 20nM purified TbStt3A purified protein, 50µM Farnesyl-PP-GlcNAc or Farnesyl-PP-GlcNac2, 10 mM MnCl2, 150 mM NaCl, 20 mM Hepes pH 7.5, 0.035% DDM, 0.007% CHS and 10 µM of the peptide P1.

TbSTT3A [4] = biological target: T1, TbSTT3A; test: Michaelis-Menten kinetics of the peptides; conditions: 20 nM TbSTT3A, 50 µM farnesyl-PP-chitobiose, peptide 2-60 µM, 30°C
Procedure: as §1
For Michaelis–Menten kinetics of the peptides, reaction mixtures containing 20 nM TbSTT3A protein, 50 µM farnesyl-PP-chitobiose, 10 mM MnCl2, 150 mM NaCl, 20 mM Hepes pH 7.5, 0.035% DDM and 0.007% CHS were incubated with varying concentrations (2–60 µM) of peptides P11, P13 and P14. Samples were taken at different time points and the turnover rate of the reactions were determined as before. Data were fitted by nonlinear regression according to the Michaelis–Menten formula using PRISM software.

`CC(=O)N[C@H]1[C@@H](OP(=O)(O)OP(=O)(O)OCC[C@@H](C)CCC=C(C)C)O[C@H](CO)[C@@H](O[C@@H]2O[C@H](CO)[C@@H](O)[C@H](O)[C@H]2NC(C)=O)[C@@H]1O` [1a, P1-2-acetamido-O-(2-acetamido-2-deoxy-β-D-glucopyranosyl)-(1-4)-2-deoxy-α-D-glucopyranosyl P2-(S)-3,7-dimethyloct-6-en-1-yl diphosphate] was tested, and the “kcat (LLO analog)” value (TbSTT3A [1]) was 9.1 ± 0.5 pep/min.

For `CC(=O)N[C@@H]1[C@@H](O)[C@H](O[C@@H]2O[C@H](CO)[C@@H](O)[C@H](O)[C@H]2NC(C)=O)[C@@H](CO)O[C@@H]1CP(=O)(O)OP(=O)(O)OCC[C@@H](C)CC/C=C(/C)CC/C=C(\C)CC/C=C(\C)CCC=C(C)C` [34d, (((2S,3R,4R,5S,6R)-3-acetamido-5-(((2S,3R,4R,5S,6R)-3-acetamido-4,5-dihydroxy-6-(hydroxymethyl)tetrahydro-2H-pyran-2-yl)oxy)-4-hydroxy-6-(hydroxymethyl)tetrahydro-2H-pyran-2-yl)methyl)phosphonic ((S,6Z,10E,14E)-3,7,11,15,19-pentamethylicosa-6,10,14,18-tetraen-1-ylphosphoric) anhydride], the IC50 (TbSTT3A [2]) was 26 ± 3 µM.

In the case of `CC(=O)NC1C(OC2C(CO)OC(OP(=O)(O)OP(=O)(O)OCCC(C)CCC=C(C)CCC=C(C)CCC=C(C)C)C(NC(C)=O)C2O)OC(CO)C(O)C1O` [1c, P1-2-acetamido-O-(2-acetamido-2-deoxy-β-D-glucopyranosyl)-(1-4)-2-deoxy-α-D-glucopyranosyl P2-(3S,6Z,10Z)-3,7,11,15-tetramethylhexadeca-6,10,14-trien-1-yl diphosphate], the “kcat (LLO analog)” value (TbSTT3A [1]) is reported as 23 ± 1 pep/min.

`CC(=O)N[C@H]1[C@@H](OP(=O)(O)OP(=O)(O)OCC[C@@H](C)CC/C=C(/C)CC/C=C(\C)CC/C=C(\C)CCC=C(C)C)O[C@H](CO)[C@@H](O[C@@H]2O[C@H](CO)[C@@H](O)[C@H](O)[C@H]2NC(C)=O)[C@@H]1O` [1d, P1-2-acetamido-O-(2-acetamido-2-deoxy-β-D-glucopyranosyl)-(1-4)-2-deoxy-α-D-glucopyranosyl P2-(S,6Z,10E,14E)-3,7,11,15,19-pentamethylicosa-6,10,14,18-tetraen-1-yl diphosphate] was tested, and the “kcat (LLO analog)” value (TbSTT3A [1]) was 16 ± 1 pep/min.

For “5CF-GSDANYTY (5FAM-GSDANYTY) [P11, 5-carboxyfluorescein labeled acceptor peptide]”, the “Glycosylation of acceptor peptide (result in words)” value (TbSTT3A [3]; farnesyl-PP-chitobiose 1b donor) was “highest turnover rate” and the “kcat (substrate peptide)” value (TbSTT3A [4]) was 37 ± 5^a pep/min.

In the case of `CC(=O)N[C@H]1[C@@H](OP(=O)(O)OP(=O)(O)OC/C=C(\C)CC/C=C(\C)CCC=C(C)C)O[C@H](CO)[C@@H](O[C@@H]2O[C@H](CO)[C@@H](O)[C@H](O)[C@H]2NC(C)=O)[C@@H]1O` [1b, P1-2-acetamido-O-(2-acetamido-2-deoxy-β-D-glucopyranosyl)-(1-4)-2-deoxy-α-D-glucopyranosyl P2-(2E,6E)-3,7,11-Trimethyldodeca-2,6,10-trien-1-yl diphosphate], the “kcat (LLO analog)” value (TbSTT3A [1]) is reported as 12 ± 1 pep/min and the “Apparent affinity lower compared to 1d” value (TbSTT3A [1]; from KM values, Table II) is reported as 2 fold.

Compound `CC(=O)N[C@@H]1[C@@H](O)[C@H](O[C@@H]2O[C@H](CO)[C@@H](O)[C@H](O)[C@H]2NC(C)=O)[C@@H](CO)O[C@@H]1CP(=O)(O)OP(=O)(O)OC/C=C(\C)CC/C=C(\C)CCC=C(C)C` [34b, (((2S,3R,4R,5S,6R)-3-acetamido-5-(((2S,3R,4R,5S,6R)-3-acetamido-4,5-dihydroxy-6-(hydroxymethyl)tetrahydro-2H-pyran-2-yl)oxy)-4-hydroxy-6-(hydroxymethyl)tetrahydro-2H-pyran-2-yl)methyl)phosphonic ((2E,6E)-3,7,11-trimethyldodeca-2,6,10-trien-1-ylphosphoric) anhydride] has an IC50 (TbSTT3A [2]) of 167 ± 14 µM.

In the case of “5CF-GSDANYTYTQ (5FAM-GSDANYTYTQ) [P14, 5-carboxyfluorescein labeled acceptor peptide, P11 elongated at the C-terminus]”, the “Increase in glycosylation turnover” value (TbSTT3A [3]; from the initial DANYTK to GSDANYTYTQ) is reported as “about 3 fold”, the “kcat (substrate peptide)” value (TbSTT3A [4]) is reported as 28 ± 1 pep/min and the Km (TbSTT3A [4]; read-out: KM (substrate peptide)) is reported as 28 ± 3 µM.
